This note sets out measurements from paper PMC7531004, “Discovery of gramicidin A analogues with altered activities by multidimensional screening of a one-bead-one-compound library” (Nature Communications, 2020).

Where a SMILES comes first, the peptide text is derived from it. [ ]: non-standard residue; d: D form. The star is where a group is joined. NHCH2CH2OH = OCCN*; For = O=C*

A short description of data set [1]: H+/Na+ transport assay of bead-derived peptides (one-point).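 Also: relative to parent gramicidin A activity set to 1.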 Format: biochemical. Also on record: key: relative activity; mean of two control wells = 1.00. The following applies: bead-derived peptide solution, EYPC/EYPG LUVs. The gist of the method: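 Pyranine (1.0 mM)-loaded LUVs containing egg yolk phosphatidylglycerol were prepared by film hydration, sonication and extrusion, then mixed with diluted bead-derived peptide in 96-well format and vortexed 30 min at room temperature. Fluorescence was normalized between untreated LUVs (0%) and Triton X-100 lysis (100%).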

The subject of data set [2] is P388 mouse leukemia cells. The settings on record: 92 h. The gist of the method: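 First, library peptide stocks are diluted 250-fold in RPMI1640 with 10% heat-inactivated FBS. Next, they are mixed with P388 cells to give 1 × 10^4 cells/mL and incubated 92 h at 37 °C, 5% CO2. Finally, viability (%) is scored by WST-1 absorbance at 415 nm.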
For data set [3], the system named is Streptococcus pyogenes SSI-9. In words: Antibacterial activity assay of bead-derived peptides (three concentrations). In kind it is cell-based. Further details: key: +++: inhibition by the 640-fold diluted peptide solution; ++: inhibition by the 160-fold diluted solution; +: inhibition by the 40-fold diluted solution; -: no inhibition. The settings on record: S. pyogenes, bead-derived peptide solution, three concentrations. A digest of the protocol:
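Bead-derived library peptide stocks in DMSO were tested undiluted and after 4- and 16-fold DMSO dilution against S. pyogenes SSI-9 (2 × 10^5 CFU/well) in cation-adjusted Mueller Hinton Broth with 5% laked horse blood. After 18 h at 37 °C, wells were scored for precipitation of grown cells.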

Turning to `CNC(=O)C[C@@H](NC(=O)[C@@H](NC(=O)[C@@H](CC(C)C)NC(=O)[C@H](C)NC(=O)[C@H](NC(=O)[C@H](C)NC(=O)CNC(=O)[C@@H](NC=O)C(C)C)C(C)C)C(C)C)C(=O)N[C@@H](Cc1c[nH]c2ccccc12)C(=O)N[C@H](CC(C)C)C(=O)N[C@@H](Cc1c[nH]c2ccccc12)C(=O)N[C@H](CC(C)C)C(=O)N[C@@H](Cc1c[nH]c2ccccc12)C(=O)N[C@@H](C(=O)N[C@@H](Cc1c[nH]c2ccccc12)C(=O)NCCO)C(C)C` [compound 9229] (For-VGA[dV]A[dL]V[dD](NHMe)W[dL]W[dL]W[dV]W-NHCH2CH2OH), the “H+/Na+ transport activity normalized against the value of 1 (1.00)” value (shortened to “H+/Na+ transport activity normalized”) in data set [1] is listed as 1.15. This molecule also registered a cell viability/% in data set [2] of 100.0%. The antibacterial activity result in data set [3] is reported as “-”.
Consider `CC(C)[C@H](NC=O)C(=O)NCC(=O)N[C@@H](C)C(=O)N[C@@H](C(=O)N[C@@H](C)C(=O)N[C@@H](C(=O)N[C@H](C(=O)N[C@@H](C(=O)N[C@@H](Cc1c[nH]c2ccccc12)C(=O)N[C@@H](C(=O)N[C@@H](Cc1c[nH]c2ccccc12)C(=O)N[C@@H](C(=O)N[C@@H](Cc1c[nH]c2ccccc12)C(=O)N[C@@H](C(=O)N[C@@H](Cc1c[nH]c2ccccc12)C(=O)NCCO)C(C)C)C(C)C)C(C)C)C(C)C)C(C)C)C(C)C)[C@H](C)O` [compound 11453] (For-VGA[dT]A[dV]V[dV]W[dV]W[dV]W[dV]W-NHCH2CH2OH), for which the “H+/Na+ transport activity normalized” value in data set [1] is on record as 1.04. In addition, in data set [2], the cell viability/% is 49.2%. For the same molecule, the antibacterial activity entry in data set [3] was “-”.
With `CC(C)C[C@@H](NC(=O)[C@H](C)NC(=O)CNC(=O)[C@@H](NC=O)C(C)C)C(=O)N[C@@H](C)C(=O)N[C@H](CC(C)C)C(=O)N[C@H](C(=O)N[C@H](CC(C)C)C(=O)N[C@@H](Cc1c[nH]c2ccccc12)C(=O)N[C@@H](C(=O)N[C@@H](Cc1c[nH]c2ccccc12)C(=O)N[C@@H](C(=O)N[C@@H](Cc1c[nH]c2ccccc12)C(=O)N[C@@H](C(=O)N[C@@H](Cc1c[nH]c2ccccc12)C(=O)NCCO)C(C)C)C(C)C)C(C)C)C(C)C` [compound 7408] (For-VGA[dL]A[dL]V[dL]W[dV]W[dV]W[dV]W-NHCH2CH2OH), the “H+/Na+ transport activity normalized” value in data set [1] is given as 1.06. The cell viability/% in data set [2] is 19.4%. The antibacterial activity result in data set [3] was “-”.
Consider `CC(C)C[C@@H](NC(=O)[C@H](C)NC(=O)CNC(=O)[C@@H](NC=O)C(C)C)C(=O)N[C@@H](C)C(=O)N[C@@H](C(=O)N[C@H](C(=O)N[C@H](CC(C)C)C(=O)N[C@@H](Cc1c[nH]c2ccccc12)C(=O)N[C@@H](C(=O)N[C@@H](Cc1c[nH]c2ccccc12)C(=O)N[C@@H](C(=O)N[C@@H](Cc1c[nH]c2ccccc12)C(=O)N[C@@H](C(=O)N[C@@H](Cc1c[nH]c2ccccc12)C(=O)NCCO)C(C)C)C(C)C)C(C)C)C(C)C)C(C)C` [compound 8796] (For-VGA[dL]A[dV]V[dL]W[dV]W[dV]W[dV]W-NHCH2CH2OH), for which the “H+/Na+ transport activity normalized” value in data set [1] turned out to be 1.15. In data set [2], this molecule had a cell viability/% of 74.1%. For the same molecule, the antibacterial activity result in data set [3] was “+”.
With `CC(C)C[C@@H](NC(=O)[C@H](Cc1c[nH]c2ccccc12)NC(=O)[C@H](NC(=O)[C@H](Cc1c[nH]c2ccccc12)NC(=O)[C@H](NC(=O)[C@H](Cc1c[nH]c2ccccc12)NC(=O)[C@H](NC(=O)[C@@H](NC(=O)[C@H](NC(=O)[C@H](C)NC(=O)[C@H](NC(=O)[C@H](C)NC(=O)CNC(=O)[C@@H](NC=O)C(C)C)C(C)C)C(C)C)C(C)C)C(C)C)C(C)C)C(C)C)C(=O)N[C@@H](Cc1c[nH]c2ccccc12)C(=O)NCCO` [compound 2182] (For-VGA[dV]A[dV]V[dV]W[dV]W[dV]W[dL]W-NHCH2CH2OH), the “H+/Na+ transport activity normalized” value in data set [1] is listed as 1.28. In data set [2], this molecule gave a cell viability/% of 100.0%. The antibacterial activity result in data set [3] is on record as “++”.
As for `CC(C)C[C@@H](NC(=O)[C@H](Cc1c[nH]c2ccccc12)NC(=O)[C@H](NC(=O)[C@H](Cc1c[nH]c2ccccc12)NC(=O)[C@H](NC(=O)[C@H](Cc1c[nH]c2ccccc12)NC(=O)[C@H](NC(=O)[C@@H](NC(=O)[C@H](NC(=O)[C@H](C)NC(=O)[C@H](NC(=O)[C@H](C)NC(=O)CNC(=O)[C@@H](NC=O)C(C)C)C(C)C)C(C)C)C(C)C)C(C)C)C(C)C)C(C)C)C(=O)N[C@@H](Cc1c[nH]c2ccccc12)C(=O)NCCO` [compound 12606] (For-VGA[dV]A[dV]V[dV]W[dV]W[dV]W[dL]W-NHCH2CH2OH), the “H+/Na+ transport activity normalized” value in data set [1] was 1.05. In data set [2], the cell viability/% is given as 100.0%. The antibacterial activity result in data set [3] is “-”.
As for `CC(C)C[C@@H](NC(=O)[C@H](C)NC(=O)CNC(=O)[C@@H](NC=O)C(C)C)C(=O)N[C@@H](C)C(=O)N[C@H](CC(C)C)C(=O)N[C@H](C(=O)N[C@H](CC(C)C)C(=O)N[C@@H](Cc1c[nH]c2ccccc12)C(=O)N[C@H](CC(C)C)C(=O)N[C@@H](Cc1c[nH]c2ccccc12)C(=O)N[C@@H](C(=O)N[C@@H](Cc1c[nH]c2ccccc12)C(=O)N[C@@H](C(=O)N[C@@H](Cc1c[nH]c2ccccc12)C(=O)NCCO)C(C)C)C(C)C)C(C)C` [compound 2718] (For-VGA[dL]A[dL]V[dL]W[dL]W[dV]W[dV]W-NHCH2CH2OH), the “H+/Na+ transport activity normalized” value in data set [1] was 1.11. Moreover, the cell viability/% in data set [2] is recorded as 0.3%. Moreover, the antibacterial activity result in data set [3] is recorded as “+”.
`CC(C)C[C@@H](NC(=O)[C@H](Cc1c[nH]c2ccccc12)NC(=O)[C@H](NC(=O)[C@@H](NC(=O)[C@H](NC(=O)[C@H](C)NC(=O)[C@H](NC(=O)[C@H](C)NC(=O)CNC(=O)[C@@H](NC=O)C(C)C)C(C)C)C(C)C)C(C)C)C(C)C)C(=O)N[C@@H](Cc1c[nH]c2ccccc12)C(=O)N[C@@H](C(=O)N[C@@H](Cc1c[nH]c2ccccc12)C(=O)N[C@@H](C(=O)N[C@@H](Cc1c[nH]c2ccccc12)C(=O)NCCO)C(C)C)C(C)C` [compound 5570] (For-VGA[dV]A[dV]V[dV]W[dL]W[dV]W[dV]W-NHCH2CH2OH): the “H+/Na+ transport activity normalized” value in data set [1] came out at 1.26. In data set [2], the cell viability/% worked out at 96.8%. In data set [3], the antibacterial activity result is “++”.
For `CC(C)C[C@@H](NC(=O)[C@H](C)NC(=O)[C@H](NC(=O)[C@H](C)NC(=O)CNC(=O)[C@@H](NC=O)C(C)C)C(C)C)C(=O)N[C@H](C(=O)N[C@@H](C(=O)N[C@@H](Cc1c[nH]c2ccccc12)C(=O)N[C@H](CC(C)C)C(=O)N[C@@H](Cc1c[nH]c2ccccc12)C(=O)N[C@H](CC(C)C)C(=O)N[C@@H](Cc1c[nH]c2ccccc12)C(=O)N[C@H](CC(C)C)C(=O)N[C@@H](Cc1c[nH]c2ccccc12)C(=O)NCCO)C(C)C)C(C)C` [compound 10593] (For-VGA[dV]A[dL]V[dV]W[dL]W[dL]W[dL]W-NHCH2CH2OH), in that order: 1.10, 38.5% and “+”.
In the case of `CC(C)C[C@@H](NC(=O)[C@@H](NC(=O)[C@H](NC(=O)[C@H](C)NC(=O)[C@H](NC(=O)[C@H](C)NC(=O)CNC(=O)[C@@H](NC=O)C(C)C)[C@H](C)O)C(C)C)C(C)C)C(=O)N[C@@H](Cc1c[nH]c2ccccc12)C(=O)N[C@@H](C(=O)N[C@@H](Cc1c[nH]c2ccccc12)C(=O)N[C@@H](C(=O)N[C@@H](Cc1c[nH]c2ccccc12)C(=O)N[C@@H](C(=O)N[C@@H](Cc1c[nH]c2ccccc12)C(=O)NCCO)C(C)C)C(C)C)C(C)C` [compound 9799] (For-VGA[dT]A[dV]V[dL]W[dV]W[dV]W[dV]W-NHCH2CH2OH), the “H+/Na+ transport activity normalized” value in data set [1] worked out at 1.26. Moreover, the cell viability/% in data set [2] came to 100.0%. Also, the antibacterial activity entry in data set [3] is listed as “-”.
Take `CC(C)C[C@@H](NC(=O)[C@H](C)NC(=O)[C@H](NC(=O)[C@H](C)NC(=O)CNC(=O)[C@@H](NC=O)C(C)C)[C@H](C)O)C(=O)N[C@H](C(=O)N[C@H](CC(C)C)C(=O)N[C@@H](Cc1c[nH]c2ccccc12)C(=O)N[C@@H](C(=O)N[C@@H](Cc1c[nH]c2ccccc12)C(=O)N[C@H](CC(C)C)C(=O)N[C@@H](Cc1c[nH]c2ccccc12)C(=O)N[C@@H](C(=O)N[C@@H](Cc1c[nH]c2ccccc12)C(=O)NCCO)C(C)C)[C@H](C)O)C(C)C` [compound 6248] (For-VGA[dT]A[dL]V[dL]W[dT]W[dL]W[dV]W-NHCH2CH2OH): the “H+/Na+ transport activity normalized” value in data set [1] was determined as 1.10. The cell viability/% in data set [2] worked out at 87.7%. In data set [3], the antibacterial activity entry is given as “-”.
For the molecule `CC(C)C[C@@H](NC(=O)[C@H](C)NC(=O)CNC(=O)[C@@H](NC=O)C(C)C)C(=O)N[C@@H](C)C(=O)N[C@@H](C(=O)N[C@H](C(=O)N[C@@H](C(=O)N[C@@H](Cc1c[nH]c2ccccc12)C(=O)N[C@@H](C(=O)N[C@@H](Cc1c[nH]c2ccccc12)C(=O)N[C@H](CC(C)C)C(=O)N[C@@H](Cc1c[nH]c2ccccc12)C(=O)N[C@@H](C(=O)N[C@@H](Cc1c[nH]c2ccccc12)C(=O)NCCO)C(C)C)C(C)C)C(C)C)C(C)C)C(C)C` [compound 5393] (For-VGA[dL]A[dV]V[dV]W[dV]W[dL]W[dV]W-NHCH2CH2OH), the “H+/Na+ transport activity normalized” value in data set [1] is reported as 1.32. The cell viability/% in data set [2] is recorded as 100.0%. Besides, in data set [3], the antibacterial activity result was “+”.
